The record followed here is ChEMBL document CHEMBL1132089, “Probing the role of interfacial residues in a dimerization inhibitor of HIV-1 protease” (Bioorg Med Chem Lett, 1999).

Where a SMILES comes first, the peptide text is derived from it. Bridges are numbered along the chain shown (N, C = ends). Roman numbers before positions name the chains, in order. The star is where a group is joined. C16 diacid = O=C(O)CCCCCCCCCCCCCCC(=O)*

For this assay, the target named is Human immunodeficiency virus type 1 protease (Human immunodeficiency virus 1) (UniProt Q72874). Briefly: Percent inhibition of HIV-1 protease at a concentration level of 25 nM relative to compound I was determined by UV absorbance.
On to `CC[C@H](C)[C@H](NC(=O)[C@H](C)NC(=O)[C@@H]1CCCN1C(=O)CCCCCCCCCCCCCCC(=O)N[C@@H](CO)C(=O)N[C@H](C(=O)N[C@@H](CC(C)C)C(=O)N[C@@H](CC(N)=O)C(=O)N[C@@H](Cc1ccccc1)C(=O)O)[C@@H](C)O)C(=O)N[C@H](C(=O)N[C@@H](CC(C)C)C(=O)N[C@@H](Cc1c[nH]c2ccccc12)C(=O)O)[C@@H](C)O` (I: PAITLW-OH / II: STLNF-OH; linker I:N-II:N via C16 diacid), for which the inhibition (commonly the share of the control response that was lost under treatment) worked out at 0.8%.
Take `CC[C@H](C)[C@H](NC(=O)[C@H](CCC(N)=O)NC(=O)[C@@H]1CCCN1C(=O)CCCCCCCCCCCCCCC(=O)N[C@@H](CO)C(=O)N[C@H](C(=O)N[C@@H](CC(C)C)C(=O)N[C@@H](CC(N)=O)C(=O)N[C@@H](Cc1ccccc1)C(=O)O)[C@@H](C)O)C(=O)N[C@H](C(=O)N[C@@H](CC(C)C)C(=O)N[C@@H](C)C(=O)O)[C@@H](C)O` (I: PQITLA-OH / II: STLNF-OH; linker I:N-II:N via C16 diacid): the inhibition turned out to be 26%.
Regarding `CC(C)C[C@H](NC(=O)[C@@H](NC(=O)[C@H](CO)NC(=O)CCCCCCCCCCCCCCC(=O)N1CCC[C@H]1C(=O)N[C@@H](CCC(N)=O)C(=O)N[C@@H](C)C(=O)N[C@H](C(=O)N[C@@H](CC(C)C)C(=O)N[C@@H](Cc1c[nH]c2ccccc12)C(=O)O)[C@@H](C)O)[C@H](C)O)C(=O)N[C@@H](CC(N)=O)C(=O)N[C@@H](Cc1ccccc1)C(=O)O`, the inhibition was found to be 2.7%.
To `CC[C@H](C)[C@H](NC(=O)[C@H](CCC(N)=O)NC(=O)[C@@H]1CCCN1C(=O)CCCCCCCCCCCCCCC(=O)N[C@@H](CO)C(=O)N[C@H](C(=O)N[C@@H](CC(C)C)C(=O)N[C@@H](CC(N)=O)C(=O)N[C@@H](Cc1ccccc1)C(=O)O)[C@H](C)O)C(=O)N[C@H](C(=O)N[C@@H](C)C(=O)N[C@@H](Cc1c[nH]c2ccccc12)C(=O)O)[C@@H](C)O` belongs 1.6%; to `CC[C@H](C)[C@H](NC(=O)[C@H](CCC(N)=O)NC(=O)[C@@H]1CCCN1C(=O)CCCCCCCCCCCCCCC(=O)N[C@@H](CO)C(=O)N[C@H](C(=O)N[C@@H](C)C(=O)N[C@@H](CC(N)=O)C(=O)N[C@@H](Cc1ccccc1)C(=O)O)[C@H](C)O)C(=O)N[C@H](C(=O)N[C@@H](CC(C)C)C(=O)N[C@@H](Cc1c[nH]c2ccccc12)C(=O)O)[C@@H](C)O`, 4.5%; to `CC[C@H](C)[C@H](NC(=O)[C@H](CCC(N)=O)NC(=O)[C@@H]1CCCN1C(=O)CCCCCCCCCCCCCCC(=O)N[C@@H](CO)C(=O)N[C@H](C(=O)N[C@@H](CC(C)C)C(=O)N[C@@H](C)C(=O)N[C@@H](Cc1ccccc1)C(=O)O)[C@H](C)O)C(=O)N[C@H](C(=O)N[C@@H](CC(C)C)C(=O)N[C@@H](Cc1c[nH]c2ccccc12)C(=O)O)[C@@H](C)O`, 1.9%.
The result for `CC[C@H](C)[C@H](NC(=O)[C@H](CCC(N)=O)NC(=O)[C@@H]1CCCN1C(=O)CCCCCCCCCCCCCCC(=O)N[C@@H](CO)C(=O)N[C@H](C(=O)N[C@@H](CC(C)C)C(=O)N[C@@H](CC(N)=O)C(=O)N[C@@H](Cc1ccccc1)C(=O)O)[C@@H](C)O)C(=O)N[C@@H](C)C(=O)N[C@@H](CC(C)C)C(=O)N[C@@H](Cc1c[nH]c2ccccc12)C(=O)O` (I: PQIALW-OH / II: STLNF-OH; linker I:N-II:N via C16 diacid) reads 3.3%; that for `CC[C@H](C)[C@H](NC(=O)[C@H](CCC(N)=O)NC(=O)[C@@H]1CCCN1C(=O)CCCCCCCCCCCCCCC(=O)N[C@@H](CO)C(=O)N[C@@H](C)C(=O)N[C@@H](CC(C)C)C(=O)N[C@@H](CC(N)=O)C(=O)N[C@@H](Cc1ccccc1)C(=O)O)C(=O)N[C@H](C(=O)N[C@@H](CC(C)C)C(=O)N[C@@H](Cc1c[nH]c2ccccc12)C(=O)O)[C@@H](C)O` (I: PQITLW-OH / II: SALNF-OH; linker I:N-II:N via C16 diacid), 3.3%; that for `CC[C@H](C)[C@H](NC(=O)[C@H](CCC(N)=O)NC(=O)[C@@H]1CCCN1C(=O)CCCCCCCCCCCCCCC(=O)N[C@@H](CO)C(=O)N[C@H](C(=O)N[C@@H](CC(C)C)C(=O)N[C@@H](CC(N)=O)C(=O)N[C@@H](C)C(=O)O)[C@H](C)O)C(=O)N[C@H](C(=O)N[C@@H](CC(C)C)C(=O)N[C@@H](Cc1c[nH]c2ccccc12)C(=O)O)[C@@H](C)O`, 3.5%.
The result for `CC[C@H](C)[C@H](NC(=O)[C@H](CCC(N)=O)NC(=O)[C@@H]1CCCN1C(=O)CCCCCCCCCCCCCCC(=O)N[C@@H](C)C(=O)N[C@H](C(=O)N[C@@H](CC(C)C)C(=O)N[C@@H](CC(N)=O)C(=O)N[C@@H](Cc1ccccc1)C(=O)O)[C@H](C)O)C(=O)N[C@H](C(=O)N[C@@H](CC(C)C)C(=O)N[C@@H](Cc1c[nH]c2ccccc12)C(=O)O)[C@@H](C)O` reads 1.1%.
